Patent US20140296212A1, “SUBSTITUTED PHENOXYPROPYLCYCLOAMINE DERIVATIVES AS HISTAMINE-3 (H3) RECEPTOR LIGANDS” (CEPHALON, INC., priority 2009, published 2014)
Structures can show the parent of a compound that is named as a salt. Where two headings read alike, the source gives them in different places.

Experiments:
human H3 receptor = molecular target: T1, human H3 receptor (Homo sapiens, UniProt Q9Y5N1); assay: Human H3 radioligand binding ([3H]-N-alpha-methylhistamine, SPA); conditions: membranes of CHO cells expressing human H3
T1 construct: expressed in transfected cells
T1 sequence (Q9Y5N1 whole entry): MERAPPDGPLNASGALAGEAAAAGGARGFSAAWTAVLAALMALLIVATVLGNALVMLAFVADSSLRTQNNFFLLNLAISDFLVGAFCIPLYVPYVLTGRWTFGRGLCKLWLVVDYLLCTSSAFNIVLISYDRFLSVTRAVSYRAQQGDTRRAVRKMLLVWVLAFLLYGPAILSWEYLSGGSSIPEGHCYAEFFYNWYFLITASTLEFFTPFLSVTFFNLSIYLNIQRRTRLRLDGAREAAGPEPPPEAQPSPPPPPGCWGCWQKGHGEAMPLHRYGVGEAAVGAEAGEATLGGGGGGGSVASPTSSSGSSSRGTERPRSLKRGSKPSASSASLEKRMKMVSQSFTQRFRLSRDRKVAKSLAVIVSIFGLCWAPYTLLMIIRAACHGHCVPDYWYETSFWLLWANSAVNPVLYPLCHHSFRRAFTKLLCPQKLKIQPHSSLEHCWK
Description: Cell pellets were resuspended in 5 mM Tris-HCl, pH 7.5 with 5 nM EDTA and a cocktail of protease inhibitors (Complete Protease Inhibitor Tablets, Roche Diagnostics). Cells were disrupted using a polytron cell homogenizer and the suspension was centrifuged at 1000×g for 10 minutes at 4° C. The pellet was discarded and the supernatant centrifuged at 40,000×g for 30 min at 4° C. This membrane pellet was washed in membrane buffer containing 50 mM Tris-HCl, pH 7.5 with 0.6 mM EDTA, 5 mM MgCl2 and protease inhibitors, recentrifuged as above and the final pellet resuspended in membrane buffer plus 250 mM sucrose and frozen at −80° C.
(§1) Membranes were resuspended in 50 mM Tris HCl (pH 7.4), 5 mM MgCl2, 0.1% BSA. The membrane suspensions (10 μg protein per well) were incubated in a 96 well microtiter plate with [^3H]-N-alpha-methylhistamine (approximately 1 nM final concentration), test compounds at various concentrations (0.01 nM-30 μM) and scintillation proximity beads (Perkin Elmer, FlashBlueGPCR Scintillating Beads) in a final volume of 80 μl for 4 hours at room temperature, protected from light. Non-specific binding was determined in the presence of 10 μM clobenpropit. Radioligand bound to receptor, and therefore in proximity to the scintillation beads, was measured using a MicroBeta scintillation counter.

[1] = molecular target: T2, rat histamine H3 receptor (Rattus norvegicus, UniProt Q9QYN8); assay: Rat H3 radioligand binding ([3H]-N-alpha-methylhistamine, SPA)
T2 construct: encoding the entire 445-amino-acid rat histamine H3 receptor; expressed in transfected cells
T2 sequence (Q9QYN8 whole entry): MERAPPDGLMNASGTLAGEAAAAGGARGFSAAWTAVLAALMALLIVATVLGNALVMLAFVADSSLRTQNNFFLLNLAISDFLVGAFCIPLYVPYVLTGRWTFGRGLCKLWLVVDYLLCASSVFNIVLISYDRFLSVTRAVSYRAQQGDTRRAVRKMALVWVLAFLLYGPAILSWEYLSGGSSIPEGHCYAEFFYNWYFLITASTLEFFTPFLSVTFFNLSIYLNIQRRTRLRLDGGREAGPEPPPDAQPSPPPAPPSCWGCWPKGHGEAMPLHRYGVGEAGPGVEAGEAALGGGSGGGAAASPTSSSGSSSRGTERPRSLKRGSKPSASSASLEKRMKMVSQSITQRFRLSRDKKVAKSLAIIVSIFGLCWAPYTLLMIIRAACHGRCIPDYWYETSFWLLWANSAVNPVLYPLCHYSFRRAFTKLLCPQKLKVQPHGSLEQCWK
Description: The rat H3 receptor cDNA was PCR amplified from reverse-transcribed RNA pooled from rat thalamus, hypothalamus, striatum and prefrontal cortex with a sequence corresponding to by #338-1672 of Genbank file #NM_053506, encoding the entire 445-amino-acid rat histamine H3 receptor. This was engineered into the pIRES-neo3 mammalian expression vector, which was stably transfected into the CHO-A3 cell line (Euroscreen, Belgium), followed by clonal selection by limiting dilution. Cells were harvested and cell pellets were frozen (−80° C.). Cell pellets were resuspended in 5 mM Tris-HCl, pH 7.5 with 5 nM EDTA and a cocktail of protease inhibitors (Complete Protease Inhibitor Tablets, Roche Diagnostics). Cells were disrupted using a polytron cell homogenizer and the suspension was centrifuged at 1000×g for 10 minutes at 4° C. The pellet was discarded and the supernatant centrifuged at 40,000×g for 30 min at 4° C. This membrane pellet was washed in membrane buffer containing 50 mM Tris-HCl, pH 7.5 with 0.6 mM EDTA, 5 mM MgCl2 and protease inhibitors, recentrifuged as above and the final pellet resuspended in membrane buffer plus 250 mM sucrose and frozen at −80° C.
as §1

[2] = membranes of CHO-A3 cells expressing rat H3, [3H]-N-alpha-methylhistamine, read-out: Rat H3 Ki

Compound | melting point | Ki (human H3 receptor) | Ki [1, 2] | Ki [1]
C[C@@H]1CCCN1CCCOc1ccc(C(=O)C(C)(C)N2CCOCC2)cc1 (as salt: fumaric acid salt) [Example 54] | 45 to 50 °C | – | – | –
C[C@@H]1CCCN1CCCOc1ccc(C(=O)CN2CCN(C(=O)c3ccccc3)CC2)c(F)c1 (as salt: fumaric acid salt) [Example 103, 2-(4-Benzoyl-piperazin-1-yl)-1-{2-fluoro-4-[3-((R)-2-methyl-pyrrolidin-1-yl)-propoxy]-phenyl}-ethanone] | 98 to 101 °C | – | – | –
CC(C)N1CCC(Oc2ccc(C(=O)CN3CCOCC3)cc2)CC1 (as salt: hydrochloride) [Example 45, 1-[4-(1-Isopropyl-piperidin-4-yloxy)-phenyl]-2-morpholin-4-yl-ethanone] | 296 to 298 °C | – | – | –
CC(C(=O)c1ccc(OCCCN2CCCCC2)cc1)N1CCCCC1 (stereo not shown) [Example 19, 2-Piperidin-1-yl-1-[4-(3-piperidin-1-yl-propoxy)-phenyl]-propan-1-one] | > 240 °C | 0.1 to 100 nM | – | –
CC(C(=O)c1ccc(OCCCN2CCC[C@@H]2C)cc1)N1CCCCC1 (stereo partly drawn) [Example 20, 1-{4-[3-((S)-2-Methyl-pyrrolidin-1-yl)-propoxy]-phenyl}-2-piperidin-1-yl-propan-1-one] | > 230 °C | 0.1 to 100 nM | – | –
CC(C(=O)c1ccc(OCCCN2CCC[C@H]2C)cc1)N1CCOCC1 (stereo partly drawn) [Example 37, 1-{4-[3-((R)-2-Methyl-pyrrolidin-1-yl)-propoxy]-phenyl}-2-morpholin-4-yl-propan-1-one] | 231 °C | 0.1 to 100 nM | – | 101 to 500 nM
O=C(CN1CCOCC1)c1ccc(OCCCN2Cc3ccccc3C2)cc1 [Example 46, 1-{4-[3-(1,3-Dihydro-isoindol-2-yl)-propoxy)-phenyl}-2-morpholin-4-yl-ethanone] | 139 to 139.5 °C | > 1000 nM | – | –
CC(C(=O)c1ccc(OCCCN2CCOCC2)cc1)N1CCOCC1 (stereo not shown) [Example 48, 2-Morpholin-4-yl-1-[4-(3-morpholin-4-yl-propoxy)-phenyl]-propan-1-one] | 258 °C | > 1000 nM | – | –
CC(=O)N1CCN(CCCOc2ccc(C(=O)CN3CCOCC3)cc2)CC1 [Example 49, 1-{4-[3-(4-Acetyl-piperazin-1-yl)-propoxy]-phenyl}-2-morpholin-4-yl-ethanone] | 247 °C | > 1000 nM | – | –
CC(=O)N1CCN(CCCOc2ccc(C(=O)C(C)N3CCOCC3)cc2)CC1 (stereo not shown) [Example 50, 1-{4-[3-(4-Acetyl-piperazin-1-yl)-propoxy]-phenyl}-2-morpholin-4-yl-propan-1-one] | 240 °C | > 1000 nM | – | –
O=C(CN1CCOCC1)c1ccc(OCCCN2CCN3CCC[C@H]3C2)cc1 [Example 51, 1-{4-[(S)-3-(Hexahydro-pyrrolo[1,2-a]pyrazin-2-yl)-propoxy)-phenyl}-2-morpholin-4-yl-ethanone] | 238 °C | > 1000 nM | – | –
CC(C(=O)c1ccc(OCCCN2CCC(F)(F)C2)cc1)N1CCOCC1 (stereo not shown) [Example 56, 1-{4-[3-(3,3-Difluoro-pyrrolidin-1-yl)-propoxy]-phenyl}-2-morpholin-4-yl-propan-1-one] | 254 °C | > 1000 nM | – | –
O=C1CN(CCCOc2ccc(C(=O)CN3CCOCC3)cc2)CCN1 [Example 57, 4-{3-[4-(2-Morpholin-4-yl-acetyl)-phenoxy]-propyl}-piperazin-2-one] | 230 °C | > 1000 nM | > 1000 nM | –
CS(=O)(=O)N1CCN(CCCOc2ccc(C(=O)CN3CCOCC3)cc2)CC1 [Example 59, 1-{4-[3-(4-Methanesulfonyl-piperazin-1-yl)-propoxy]-phenyl}-2-morpholin-4-yl-ethanone] | 246 to 248 °C | > 1000 nM | > 1000 nM | –
O=C(CN1CCOCC1)c1ccc(OCCCN2CCN3CCCCC3C2)cc1 (stereo not shown) [Example 62, 2-Morpholin-4-yl-1-{4-[3-(octahydro-pyrido[1,2-a]pyrazin-2-yl)-propoxy]-phenyl}-ethanone] | 251 °C | 501 to 1000 nM | > 1000 nM | –
O=C(CN1CCOCC1)c1ccc(OCCCN2CCCCC2)cc1F [Example 65, 1-[2-Fluoro-4-(3-piperidin-1-yl-propoxy)-phenyl]-2-morpholin-4-yl-ethanone] | 170 to 172 °C | 101 to 500 nM | > 1000 nM | –
COC[C@H]1CCCN1CCCOc1ccc(C(=O)CN2CCOCC2)cc1 [Example 71, 1-{4-[3-((R)-2-Methoxymethyl-pyrrolidin-1-yl)-propoxy]-phenyl}-2-morpholin-4-yl-ethanone] | > 200 °C (dec.) | > 1000 nM | > 1000 nM | –
CC(C)OC(=O)N1CCN(CC(=O)c2ccc(OCCCN3CCC[C@H]3C)cc2)CC1 [Example 158, 4-(2-{4-[3-((R)-2-Methyl-pyrrolidin-1-yl)-propoxy]-phenyl}-2-oxo-ethyl)-piperazine-1-carboxylic acid isopropyl ester] | 222 to 224 °C | – | – | –
C[C@@H]1CCCN1CCCOc1ccc(/C(CN2CCOC(c3ccccc3)C2)=N/OC(C)(C)C)cc1 (stereo partly shown) [Example 168] | – | 0.1 to 100 nM | 101 to 500 nM | –

Further lines, with some results ahead:

melting point | Ki (human H3 receptor) | Ki [1, 2] | Compound | Ki [1]
127 to 140 °C | 0.1 to 100 nM | 0.1 to 100 nM | C[C@@H]1CCCN1CCCOc1ccc(C(=O)CN2CCC(F)(F)CC2)cc1 [Example 44, 2-(4,4-Difluoro-piperidin-1-yl)-1-{4-[3-((R)-2-methyl-pyrrolidin-1-yl)-propoxy]-phenyl}-ethanone] | –
160 to 165 °C (dec.) | 0.1 to 100 nM | 101 to 500 nM | CC(C)N1CCC(Oc2ccc(C(=O)CN3CCCC(F)(F)C3)cc2)CC1 [Example 53, 2-(3,3-Difluoro-piperidin-1-yl)-1-[4-(1-isopropyl-piperidin-4-yloxy)-phenyl]-ethanone] | –
108 to 120 °C | 0.1 to 100 nM | 0.1 to 100 nM | C[C@@H]1CCCN1CCCOc1ccc(C(=O)CN2CCCC(C)(C)C2)cc1 [Example 55, 2-(3,3-Dimethyl-piperidin-1-yl)-1-{4-[3-((R)-2-methyl-pyrrolidin-1-yl)-propoxy]-phenyl}-ethanone] | –
100 to 106 °C | 0.1 to 100 nM | 0.1 to 100 nM | CC1CCC(C)N1CC(=O)c1ccc(OCCCN2CCC[C@H]2C)cc1 (stereo partly drawn) [Example 58, 2-(2,5-Dimethyl-pyrrolidin-1-yl)-1-{4-[3-((R)-2-methyl-pyrrolidin-1-yl)-propoxy]-phenyl}-ethanone] | –
127 to 135 °C | 0.1 to 100 nM | 0.1 to 100 nM | CC1CCCC(C)N1CC(=O)c1ccc(OCCCN2CCC[C@H]2C)cc1 (stereo partly drawn) [Example 61, 2-(2,6-Dimethyl-piperidin-1-yl)-1-{4-[3-((R)-2-methyl-pyrrolidin-1-yl)-propoxy]-phenyl}-ethanone] | –
125 to 133 °C | 0.1 to 100 nM | 0.1 to 100 nM | CC(=O)N1CCN(CC(=O)c2ccc(OCCCN3CCC[C@H]3C)cc2)CC1 [Example 63, 2-(4-Acetyl-piperazin-1-yl)-1-{4-[3-((R)-2-methyl-pyrrolidin-1-yl)-propoxy]-phenyl}-ethanone] | –
120 to 126 °C | 0.1 to 100 nM | 0.1 to 100 nM | C[C@@H]1CCCN1CCCOc1ccc(C(=O)CN2CCN(S(C)(=O)=O)CC2)cc1 [Example 66, 2-(4-Methanesulfonyl-piperazin-1-yl)-1-{4-[3-((R)-2-methyl-pyrrolidin-1-yl)-propoxy]-phenyl}-ethanone] | –
124 to 135 °C | 0.1 to 100 nM | 0.1 to 100 nM | C[C@@H]1CCCN1CCCOc1ccc(C(=O)CN2CCN(S(=O)(=O)c3ccccc3)CC2)cc1 [Example 69, 2-(4-Benzenesulfonyl-piperazin-1-yl)-1-{4-[3-((R)-2-methyl-pyrrolidin-1-yl)-propoxy]-phenyl}-ethanone] | –
116 to 125 °C | 0.1 to 100 nM | 0.1 to 100 nM | C[C@@H]1CCCN1CCCOc1ccc(C(=O)CN2CCN(C(=O)N3CCOCC3)CC2)cc1 [Example 70, 1-{4-[3-((R)-2-Methyl-pyrrolidin-1-yl)-propoxy]-phenyl}-2-[4-(morpholine-4-carbonyl)-piperazin-1-yl]-ethanone] | –
